In patent US10975068B2, “6-aminopyridin-3-yl thiazoles as modulators of RORγT” (Janssen Pharmaceutica NV, priority 2016, dated 2021):
pIC50, pKd: −log10 of the molar value. Like-named read-outs stand apart in the source and are kept apart here.

Columns and labels:
[1] = target: full-length human RORγt (Homo sapiens (Human), UniProt P51449); assay: RORγt (full-length human) reporter assay, Conditions B or C; type: cell-based; details: for RORγt (FL) Reporter Assay B or C, % inhibition (value marked *): marked *: footnote not given; for pIC50: read-out: RORγt (FL) Reporter Assay B or C, IC50; for RORγt (FL) Reporter Assay B or C, % inhibition (value marked ***): marked ***: footnote not given; for inhibition at 3 µM: at 3 μM compound concentration
Sequence of full-length human RORγt (P51449 other isoform, or with tags, fused parts or gaps): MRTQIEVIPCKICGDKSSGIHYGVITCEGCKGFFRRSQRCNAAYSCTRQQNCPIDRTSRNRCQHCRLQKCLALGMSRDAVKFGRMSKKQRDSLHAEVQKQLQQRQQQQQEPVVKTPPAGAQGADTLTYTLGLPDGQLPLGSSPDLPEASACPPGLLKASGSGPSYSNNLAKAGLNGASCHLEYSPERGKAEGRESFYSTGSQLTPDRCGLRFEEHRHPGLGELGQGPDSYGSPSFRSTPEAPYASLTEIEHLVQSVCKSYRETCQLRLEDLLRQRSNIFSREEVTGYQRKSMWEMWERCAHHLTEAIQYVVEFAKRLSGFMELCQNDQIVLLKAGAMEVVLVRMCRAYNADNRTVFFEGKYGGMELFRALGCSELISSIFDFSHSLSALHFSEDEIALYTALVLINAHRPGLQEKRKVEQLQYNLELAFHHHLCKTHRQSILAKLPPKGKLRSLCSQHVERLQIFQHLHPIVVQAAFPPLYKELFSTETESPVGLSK
Method in brief: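 Readout is dual luciferase: firefly (GAL4-driven) normalized to DMSO-only and saturating-reference controls, then to CMV-Renilla. Full-length human RORγt fused to GAL4-DBD was transiently expressed in HEK293T; compound exposure ran overnight (16-20 h) starting 4-6 h after transfection, final FBS 1.3%, DMSO 0.1%.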

[2] = target: human RORγt ligand binding domain (RORγt LBD) (Homo sapiens (Human), UniProt P51449); assay: RORγt ThermoFluor® assay (thermal shift binding); details: for pKd: read-out: ThermoFluor® Assay, Kd
Sequence of human RORγt ligand binding domain (RORγt LBD) (P51449 other isoform, or with tags, fused parts or gaps): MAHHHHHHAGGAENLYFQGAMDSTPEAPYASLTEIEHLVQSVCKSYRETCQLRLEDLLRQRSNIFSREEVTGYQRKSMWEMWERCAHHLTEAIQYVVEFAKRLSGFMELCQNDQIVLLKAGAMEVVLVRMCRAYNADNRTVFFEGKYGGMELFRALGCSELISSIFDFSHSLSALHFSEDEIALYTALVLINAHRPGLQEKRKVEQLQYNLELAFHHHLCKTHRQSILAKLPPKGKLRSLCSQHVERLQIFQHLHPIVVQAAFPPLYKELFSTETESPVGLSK
Method in brief: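 Binding was inferred from thermal stabilisation (ΔTm) of the E. coli-expressed RORγt LBD (0.065 mg/mL), monitored by 1,8-ANS (60 μM) emission at 500 nm during a 1 °C/min ramp. Buffer was Hepes 100 mM pH 7.0 with NaCl, GSH and Tween-20.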

[3] = read-out: RORγt (FL) Reporter Assay B or C, % inhibition

Row | Compound | RORγt (FL) Reporter Assay B or C, % inhibition (value marked *) ([1]; Conditions B or C) | pIC50 ([1]; Conditions B or C) | pKd [2] | inhibition at 3 µM [1, 3] [%] | pIC50 [1] | other results
1 | CC[C@H](Nc1cc(C(F)(F)F)c(-c2sc(C(=O)NCC(C)(C)O)nc2C(=O)N2C3CCC2CC3)cn1)C1CC1 (stereo in doubt) [Example 130] | – | – | – | – | – | RORγt (FL) Reporter Assay B or C, % inhibition (value marked ***) ([1]; Conditions B or C): 98*** %; IC50 ([1]; RORγt (FL) Reporter Assay B or C, IC50 (μM), Conditions B or C): 0.03 µM; Kd ([2]; ThermoFluor® Assay, Kd (μM)): 0.0016 µM
2 | CC(C)[C@H](C)Nc1cc(C(F)F)c(-c2sc(C(=O)NCC(C)(C)O)nc2C(=O)N2CCC[C@@H]2C)cn1 [Example 300, 5-(4-(Difluoromethyl)-6-(((S)-3-methylbutan-2-yl)amino)pyridine-3-yl)-N-(2-hydroxy-2-methylpropyl)-4-((S)-2-methylpyrrolidine-1-carbonyl)thiazole-2-carboxamide] | – | – | 8.80 | 100 | 7.54 | –
3 | CC[C@H](Nc1cc(C(F)F)c(-c2sc(C(=O)N3CCOCC3)nc2C(=O)N2CCC[C@@H]2C)cn1)C(F)(F)F [Example 395, [5-[4-(Difluoromethyl)-6-[[(1S)-1-(trifluoromethyl)propyl]amino]-3-pyridyl]-2-(morpholine-4-carbonyl)thiazol-4-yl]-[(2S)-2-methylpyrrolidin-1-yl]methanone] | – | – | 7.40 | 103 | 7.47 | –
4 | C[C@H](Nc1cc(C(F)F)c(-c2sc(C(=O)N[C@H]3CC[C@@H]3O)nc2C(=O)N2CCC[C@@H]2C)cn1)C(F)(F)F (relative stereo) [Example 388, 5-(4-(Difluoromethyl)-6-(((S)-1,1,1-trifluoropropan-2-yl)amino)pyridin-3-yl)-N-((1S*,2S*)-2-hydroxycyclobutyl)-4-((S)-2-methylpyrrolidine-1-carbonyl)thiazole-2-carboxamide] | – | – | 8.07 | 103 | 7.07 | –
5 | CC(Nc1cc(C(F)(F)F)c(-c2sc(C(=O)NCC(C)(C)O)nc2C(=O)N2CC(F)(F)C[C@@H]2C)cn1)C1CCC1 (stereo partly drawn) [Example 161, 5-(6-((1-Cyclobutylethyl)amino)-4-(trifluoromethyl)pyridine-3-yl)-4-((S)-4,4-difluoro-2-methylpyrrolidine-1-carbonyl)-N-(2-hydroxy-2-methylpropyl)thiazole-2-carboxamide] | 106* % | 7.70 | 9.11 | – | – | –
6 | CC(C)(O)CNC(=O)c1nc(C(=O)N2C3CCC2CC3)c(-c2cnc(NC(C)(C)C3CC3)cc2C(F)F)s1 [Example 97, 4-((1s,4s)-7-Azabicyclo[2.2.1]heptane-7-carbonyl)-5-(6-((2-cyclopropylpropan-2-yl)amino)-4-(difluoromethyl)pyridin-3-yl)-N-(2-hydroxy-2-methylpropyl)thiazole-2-carboxamide] | 111* % | 8.44 | 8.89 | – | – | –
7 | CC[C@H](Nc1cc(C(F)F)c(-c2sc(C(=O)NC3CN(S(C)(=O)=O)C3)nc2C(=O)N2CCC[C@@H]2C)cn1)C(F)(F)F [Example 383, 5-[4-(Difluoromethyl)-6-[[(1S)-1-(trifluoromethyl)propyl]amino]-3-pyridyl]-4-[(2S)-2-methylpyrrolidine-1-carbonyl]-N-(1-methylsulfonylazetidin-3-yl)thiazole-2-carboxamide] | – | – | 8.59 | 108 | 7.04 | –
8 | C[C@H]1CCCN1C(=O)c1nc(C(=O)N[C@H]2CC[C@@H]2O)sc1-c1cnc(NC(C)(C)C)cc1C(F)F (relative stereo) [Example 404, 5-(6-(tert-Butylamino)-4-(difluoromethyl)pyridin-3-yl)-N-((1S*,2S*)-2-hydroxycyclobutyl)-4-((S)-2-methylpyrrolidine-1-carbonyl)thiazole-2-carboxamide] | – | – | 8.42 | – | 7.82 | inhibition at 0.3 µM ([1]; at 0.3 μM compound concentration, read-out: RORγt (FL) Reporter Assay B or C, % inhibition): 98%
9 | CC(C)(O)CNC(=O)c1nc(C(=O)N2C3CCC2CC3)c(-c2cnc(NC(C3CC3)C3CC3)cc2C(F)(F)F)s1 [Example 137, 4-((1s,4s)-7-Azabicyclo[2.2.1]heptane-7-carbonyl)-5-(6-((dicyclopropylmethyl)amino)-4-(trifluoromethyl)pyridin-3-yl)-N-(2-hydroxy-2-methypropyl)thiazole-2-carboxamide] | 97* % | 7.92 | 8.96 | – | – | –

More lines, main results first:

Row | RORγt (FL) Reporter Assay B or C, % inhibition (value marked *) ([1]; Conditions B or C) | pIC50 ([1]; Conditions B or C) | pKd [2] | inhibition at 3 µM [1, 3] [%] | pIC50 [1] | Compound | other results
10 | 112* % | 7.70 | 8.39 | – | – | CC[C@H](Nc1cc(C(F)F)c(-c2sc(C(=O)N[C@@H](C)[C@@H](C)O)nc2C(=O)N2CCC[C@@H]2C)cn1)C(F)(F)F (relative stereo) [Example 219, 5-(4-(Difluoromethyl)-6-(((S)-1,1,1-trifluorobutan-2-yl)amino)pyridin-3-yl)-N-((2S*,3R*)-3-hydroxybutan-2-yl)-4-((S)-2-methylpyrrolidine-1-carbonyl)thiazole-2-carboxamide] | –
11 | 105* % | 7.62 | 8.44 | – | – | CC[C@@H](Nc1cc(C(F)F)c(-c2sc(C(=O)N[C@@H]3COC[C@H]3O)nc2C(=O)N2CCC[C@@H]2C)cn1)C(F)(F)F [Example 204, 5-(4-(Difluoromethyl)-6-(((1R)-1-(trifluoromethyl)propyl)amino)-3-pyridyl)-N-((3R,4S)-4-hydroxytetrahydrofuran-3-yl)-4-((2S)-2-methylpyrrolidine-1-carbonyl)thiazole-2-carboxamide] | –
12 | – | 8.15 | 9.37 | – | – | C[C@H]1CC(F)(F)CN1C(=O)c1nc(C(=O)NCC(C)(C)O)sc1-c1cnc(NCC2(C(F)(F)F)CCC2)cc1C(F)(F)F [Example 118, (S)-4-(4,4-Difluoro-2-methylpyrrolidine-1-carbonyl)-N-(2-hydroxy-2-methylpropyl)-5-(4-(trifluoromethyl)-6-(((1-(trifluoromethyl)cyclobutyl)methyl)amino)pyridin-3-yl)thiazole-2-carboxamide] | RORγt (FL) Reporter Assay B or C, % inhibition (value marked ****) ([1]; Conditions B or C, marked ****: footnote not shown): 109**** %
13 | 92* % | 7.54 | 8.26 | – | – | C[C@H](NC(=O)c1nc(C(=O)N2CCC[C@@H]2C)c(-c2cnc(NC(C)(C)C)cc2C(F)(F)F)s1)[C@@H](C)O (relative stereo) [Example 238, 5-(6-(tert-Butylamino)-4-(trifluoromethyl)pyridin-3-yl)-N-((2S*,3R*)-3-hydroxybutan-2-yl)-4-((S)-2-methylpyrrolidine-1-carbonyl)thiazole-2-carboxamide] | –
14 | – | – | 7.54 | 118 | 7.57 | CC[C@H](Nc1cc(C(F)F)c(-c2sc(C(=O)N3CC(S(C)(=O)=O)C3)nc2C(=O)N2CCC[C@@H]2C)cn1)C(F)(F)F [Example 393, [5-[4-(Difluoromethyl)-6-[[(1S)-1-(trifluoromethyl)propyl]amino]-3-pyridyl]-2-(3-methylsulfonylazetidine-1-carbonyl)thiazol-4-yl]-[(28)-2-methylpyrrolidin-1-yl]methanone] | –
15 | – | 7.72 | 8.59 | – | – | CC[C@@H](Nc1cc(C(F)F)c(-c2sc(C(=O)N[C@H]3COC[C@@H]3O)nc2C(=O)N2CCC[C@@H]2C)cn1)C(F)(F)F [Example 207, 5-(4-(Difluoromethyl)-6-(((1R)-1-(trifluoromethyl)propyl)amino)-3-pyridyl)-N-((3S,4R)-4-hydroxytetrahydrofuran-3-yl)-4-((2S)-2-methylpyrrolidine-1-carbonyl)thiazole-2-carboxamide] | RORγt (FL) Reporter Assay B or C, % inhibition (value marked ***) ([1]; Conditions B or C): 103*** %
16 | – | 7.82 | 8.89 | – | – | C[C@@H](Nc1cc(C(F)(F)F)c(-c2sc(C(=O)NCC(C)(C)O)nc2C(=O)N2CCC[C@@H]2C)cn1)C1CCC1 (relative stereo) [Example 176, 5-(6-(((R*)-1-Cyclobutylethyl)amino)-4-(trifluoromethyl)pyridine-3-yl)-N-(2-hydroxy-2-methylpropyl)-4-((S)-2-methylpyrrolidine-1-carbonyl)thiazole-2-carboxamide] | RORγt (FL) Reporter Assay B or C, % inhibition (value marked ***) ([1]; Conditions B or C): 115*** %
17 | – | – | 7.00 | 95 | 6.46 | CC[C@H](Nc1cc(C(F)F)c(-c2sc(C(=O)N3CC4(CCO4)C3)nc2C(=O)N2CCC[C@@H]2C)cn1)C(F)(F)F [Example 385, [5-[4-(Difluoromethyl)-6-[[(1S)-1-(trifluoromethyl)propyl]amino]-3-pyridyl]-2-(3-oxa-6-azaspiro[3.3]heptane-6-carbonyl)thiazol-4-yl]-[(2S)-2-methylpyrrolidin-1-yl]methanone] | –
18 | – | 7.85 | 9.77 | – | – | C[C@H]1CCCCN1C(=O)c1nc(C(=O)NC2CCS(=O)(=O)CC2)sc1-c1cnc(NC2CCCC2)cc1C(F)(F)F [Example 28, (S)-5-(6-(Cyclopentylamino)-4-(trifluoromethyl)pyridin-3-yl)-N-(1,1-dioxidotetrahydro-2H-thiopyran-4-yl)-4-(2-methylpiperidine-1-carbonyl)thiazole-2-carboxamide] | inhibition at 6 µM ([1]; read-out: RORγt (FL) Reporter Assay B or C, % inhibition @ 6 μM, Conditions B or C, @ 6 μM): 123%
19 | – | – | 8.59 | 104 | 7.64 | C[C@H]1CCCN1C(=O)c1nc(C(=O)NC2(CO)COC2)sc1-c1cnc(NC(C)(C)C)cc1C(F)(F)F [Example 261, 5-[6-(tert-Butylamino)-4-(trifluoromethyl)-3-pyridyl]-N-[3-(hydroxymethyl)oxetan-3-yl]-4-[(2S)-2-methylpyrrolidine-1-carbonyl]thiazole-2-carboxamide] | –
